Experimental data: patent US6645949B1, “Toxicity of boron compounds to certain arthropods” (University of Florida, priority 2000, dated 2003)
“And” between values parts separate entries of the source, which are not always exact repeats. Equal entries are not always repeated.

System: Diamond Back Moth (DBM; Plutella xylostella)
Assay: Control of diamond back moth and inhibition of egg deposition, cage test with sugar pads
Type: in vivo
Conditions: 4% in 10% sucrose
Description: On day one, six cages (24″ cube) were set up with five virgin DBM females and five virgin DBM males, one cabbage seedling, and one sugar pad (10% sucrose) in each cage. The sugar solution in three cages also contained 4% sodium tetraborate (4 g+96 ml, w:v water). The virgin adult DBM were obtained by isolating colony pupae individually in vials two days prior. The adults emerged one day prior to day one and on day one. They were provided a 10% sugar solution with or without sodium tetraborate, as soon as they emerged, by placing the vials with cloth bottoms on cotton pads.
The cages were placed in environmental rooms where the temperature was 25-26° C. and the day length was 14 hours.
Sugar pads were a single layer of rolled cotton approximately 8 cm square. Each pad was soaked in the appropriate solution, placed in the bottom of a petri dish (95×15 mm), and the excess water was pressed out. Each pad held about 30 ml of solution.
The cabbage seedlings were in Descn. No. 12 plastic pots. The surface of the soil was covered with a thin layer of Plaster of Paris.
On each of days two, three, four, five, and six, the sugar pads and plants were changed (once) between 1:00 p.m. and 5:00 p.m.

[1] = Day 7, cages 1-3, one cage per cell
[2] = Total of Days 2-7, cages 1-3, one cage per cell
[3] = Total of Days 2-7 and of 3 cages
[4] = relative to sugar control, Days 2-7

SMILES: O=BOB(O)OB(O)OB=O [Sodium tetraborate, sodium tetraborate]
- Percent Hatch, Average (Average of the 3 cages, Days 2-7): 66.4%
- Number of Eggs, Average (Average per cage over Days 2-7): 354.7
- Number of Larvae, Average (Average per cage over Days 2-7): 235.3
- Number of Dead Females (Day 2, Total of 3 cages): 0
- Number of Dead Males (Day 2, Total of 3 cages): 0
- Number of Eggs (Day 2, Total of 3 cages): 202
- Number of Larvae (Day 2, Total of 3 cages): 99
- Percent Hatch (Day 2, Total): 44.8%
- Number of Dead Females (Day 2, cages 1-3, five females per cage): 0
- Number of Dead Males (Day 2, cages 1-3, five males per cage): 0
- Percent Hatch (Day 2, cages 1-3, one cage per cell): 40.9% and 58.2% and 35.4%
- Number of Dead Females (Day 3, Total of 3 cages): 1
- Number of Dead Males (Day 3, Total of 3 cages): 0
- Number of Eggs (Day 3, Total of 3 cages): 499
- Number of Larvae (Day 3, Total of 3 cages): 388
- Percent Hatch (Day 3, Total): 79.9%
- Number of Dead Males (Day 3, cages 1-3, five males per cage): 0
- Percent Hatch (Day 3, cages 1-3, one cage per cell): 73.7% and 74.2% and 91.7%
- Number of Dead Females (Day 4, Total of 3 cages): 1
- Number of Dead Males (Day 4, Total of 3 cages): 0
- Number of Eggs (Day 4, Total of 3 cages): 185
- Number of Larvae (Day 4, Total of 3 cages): 113
- Percent Hatch (Day 4, Total): 57.0%
- Number of Dead Males (Day 4, cages 1-3, five males per cage): 0
- Percent Hatch (Day 4, cages 1-3, one cage per cell): 47.5% and 52.2% and 71.3%
- Number of Dead Females (Day 5, Total of 3 cages): 1
- Number of Dead Males (Day 5, Total of 3 cages): 2
- Number of Eggs (Day 5, Total of 3 cages): 119
- Number of Larvae (Day 5, Total of 3 cages): 70
- Percent Hatch (Day 5, Total): 54.3%
- Number of Dead Females (Day 6, Total of 3 cages): 3
- Number of Dead Males (Day 6, Total of 3 cages): 4
- Number of Eggs (Day 6, Total of 3 cages): 58
- Number of Larvae (Day 6, Total of 3 cages): 36
- Percent Hatch (Day 6, Total): 63.3%
- Number of Dead Females (Day 6, cages 1-3, five females per cage): 1
- Number of Dead Females (Day 7, Total of 3 cages): 6
- Number of Dead Males (Day 7, Total of 3 cages): 4
- Number of Eggs (Day 7, Total of 3 cages): 1
- Number of Larvae (Day 7, Total of 3 cages): 0
- Number of Live Females (Day 7, Total of 3 cages): 2
- Number of Live Males (Day 7, Total of 3 cages): 2
- Percent Hatch (Day 7, Total): 0.0%
- Number of Dead Males (Day 7, cages 1-3, five males per cage): 2 and 1
- Number of Larvae [1]: 0
- Percent Hatch [1]: 0.0%
- Percent Hatch, Total (Days 2-7 together, cages 1-3, one cage per cell): 60.9% and 65.5% and 72.9%
- Number of Eggs, Total [2]: 419 and 261 and 384
- Number of Larvae, Total [2]: 255 and 171 and 280
- Number of Eggs, Total [3]: 1064
- Number of Larvae, Total [3]: 706
- Number of Eggs, % of sugar [4]: 57.1%
- Number of Larvae, % of sugar [4]: 64.2%
